Series [1] deals with LNCaP. The experiment in a line: Cell-Titer-Glo inhibition of cell proliferation, LNCaP. Type of series: cell-based. The conditions noted are these: Homo sapiens, CellTiter-Glo, 72 h. How it is done: (§1) V. Cell-Titer-Glo—Inhibition of Cell Proliferation by PLK1 Inhibitors
(§2) Exponentially growing cell lines of different tumor origins, cultured in appropriate media containing 10% fetal bovine serum at 37° C. in a 5% CO2 incubator were plated at low density (less than 2000 cells/well) in 96-well plates. Twenty four hours post-plating, cells were treated with different concentrations of test compounds ranging from 10 uM to 0.04 nM. Several wells were left untreated as a control. Seventy two hours post-treatment, cell numbers were determined using 50-100 ul per well of CellTiter-Glo (Promega #G7573). Plates were incubated at room temperature for 15 minutes and the chemiluminescent signal was read on the Victor V or Envison 2100 reader.
(§3) The Cell-Titer Glo data are shown in Table 2 below and represent a compilation of several different experiments, each performed using the general parameters outlined above, although minor variations may have been employed in some instances.

The subject of series [2] is HT29. The experiment in a line: Cell-Titer-Glo inhibition of cell proliferation, HT29. It counts as cell-based. As to conditions: Homo sapiens, HT-29, CellTiter-Glo, 72 h. On the procedure: as §1, §2, §3
A general note: Cellular ATP, detected with luciferase, serves as a proxy for viable cell number.

The subject of series [3] is MV522. The experiment in a line: Cell-Titer-Glo inhibition of cell proliferation, MV522. It counts as cell-based. As to conditions: CellTiter-Glo, 72 h. How it is done: as §1, §2, §3
Series [4] has as its system HCT116. The experiment in a line: Methylene blue growth inhibition assay, HCT116. As to conditions: Homo sapiens, HCT-116; methylene blue, 72 h, HCT116; read-out: HCT116 IC50. Type of series: cell-based. An outline of the steps:
(§4)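 Tumour lines and HFF, plated at cell-line-specific densities in DMEM with 10% FBS, were exposed next day to compound (final DMSO 0.3%) for 72 h at 37 °C. Biomass was stained with methylene blue, solubilized in 1% N-lauroyl sarcosine and read at OD 620 nm; percent growth inhibition was calculated against vehicle controls.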

Series [5] has as its system H460. The experiment in a line: Methylene blue growth inhibition assay, H460. Type of series: cell-based. As to conditions: Homo sapiens, NCI-H460; methylene blue, 72 h, H460; read-out: H460 IC50. In a few lines:
as §4

Series [6] has as its system HCT116. Briefly: Cell-Titer-Glo inhibition of cell proliferation, HCT116. Type of series: cell-based. The conditions noted are these: Homo sapiens, HCT-116, CellTiter-Glo, 72 h. How it is done: as §1, §2, §3
The test system of series [7] is normal human foreskin fibroblasts (HFF). The experiment in a line: Methylene blue growth inhibition assay, HFF. It counts as cell-based. As to conditions: Fibroblast, methylene blue, 72 h, HFF normal fibroblasts, read-out: HFF IC50. An outline of the steps: as §4
The subject of series [8] is MCF7. Briefly: Cell-Titer-Glo inhibition of cell proliferation, MCF7. Type of series: cell-based. As to conditions: Homo sapiens, CellTiter-Glo, 72 h. On the procedure:
as §1, §2, §3

In series [9] the test system is MX-1. Briefly: Cell-Titer-Glo inhibition of cell proliferation, MX-1. It counts as cell-based. As to conditions: Homo sapiens, MX1, CellTiter-Glo, 72 h. On the procedure: as §1, §2, §3
Series [10] can be described thus: High throughput solubility assay. As to conditions: aqueous buffer, pH 7.4, 0.05M phosphate buffer. It counts as physicochemical. In a few lines: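 Compound (up to 200 μM) shaken 24 h in 0.05M phosphate buffer pH 7.4, then filtered (0.45μ) and centrifuged. Solubility derived from HPLC peak area relative to a 20 μM standard in an aqueous/organic solvent mixture.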

Series [11] concerns HN5. Briefly: Cell-Titer-Glo inhibition of cell proliferation, HN5. It counts as cell-based. The conditions noted are these: Homo sapiens, CellTiter-Glo, 72 h. On the procedure: as §1, §2, §3
Series [12] concerns MDA-MB-468. Briefly: Cell-Titer-Glo inhibition of cell proliferation, MDA-MB-468. It counts as cell-based. As to conditions: Homo sapiens, CellTiter-Glo, 72 h. How it is done:
as §1, §2, §3

The subject of series [13] is human plasma proteins. Briefly: Protein binding to human plasma proteins using equilibrium dialysis. It counts as in vitro ADME. As to conditions: pH 7.4, equilibrium dialysis 6 h, 37° C. An outline of the steps: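 Equilibrium dialysis of human plasma spiked at 2000 ng/mL against PBS pH 7.4 across a 12,000–14,000 Da membrane, 6 h at 37 °C with shaking, eight wells per compound. Donor and receiver samples were quantified by LC/MS/MS analyte/internal standard peak area ratios. Binding is reported in bands: >98%, 95–98%, <95%.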
Background: Equilibrium dialysis compares concentrations on both sides of a semipermeable membrane.

What is called IC50 is the midpoint of a concentration-inhibition curve. One may read the solubility as the concentration that dissolves in the medium under given conditions. The term fraction unbound denotes free concentration divided by total concentration. A lower fraction unbound goes with little free substance.

The structures appear in SMILES notation.

With `C[C@@H](Oc1cc(-n2cnc3ccc(CN4CCN(C)CC4)cc32)sc1C(N)=O)c1ccccc1C(F)(F)F` [Example 3, 5-{6-[(4-Methylpipiperazin-1-yl)methyl]-1H-benzimidazol-1-yl}-3-{(1R)-1-[2-(trifluoromethyl)phenyl]ethoxy}thiophene-2-carboxamide], the IC50 in series [1] was below 500 nM; in [2] it was below 500 nM; in [3] it was below 500 nM; in series [4], below 100 nM; in [5] it was below 100 nM; in series [6], below 500 nM. Also, the IC50 in series [7] was below 100 nM; in series [8], below 500 nM; in series [9], below 500 nM; in [11] it was below 500 nM; in [12] it was below 500 nM. For the same compound, in series [10], the solubility at 24 h is above 100 µM. In [13], this compound gave a fraction unbound at 6 h, 2000 ng/mL above 0.05.
